# Source: patent US20230022157A1 (Achillion Pharmaceuticals, Inc., priority 2018, published 2023)
# Target: T1, Human Factor D (Homo sapiens, UniProt P00746)
# T1 construct: purified from human serum; purchased Complement Technology, Inc; host or cells: human serum (natural protein, not recombinant)
# Assay: Human Factor D Assay
# Type: biochemical
# Conditions: Human Factor D 80 nM, substrate Z-L-Lys-SBzl, assay of Example 3; read-out: IC50 (Stars)
# How it was run: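 Serum-purified human factor D (80 nM final) preincubated 5 min at room temperature with test compound in 50 mM Tris, 1M NaCl, pH 7.5. Z-L-Lys-SBzl substrate and DTNB then added, each at 100 μM final. IC50 from nonlinear regression of reaction rate against compound concentration.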
# T1 sequence (P00746 26-253): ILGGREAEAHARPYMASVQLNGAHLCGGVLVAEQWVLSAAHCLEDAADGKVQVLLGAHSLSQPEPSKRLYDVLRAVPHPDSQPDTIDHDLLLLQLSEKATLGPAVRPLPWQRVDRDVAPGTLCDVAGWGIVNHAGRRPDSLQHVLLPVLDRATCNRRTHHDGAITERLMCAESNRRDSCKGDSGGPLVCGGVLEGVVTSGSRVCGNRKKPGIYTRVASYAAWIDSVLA
row,IC50,SMILES
1,< 1000 nM,"CC(=O)c1nn(CC(=O)N2[C@H](C(=O)Nc3cccc(C(F)(F)F)c3F)C[C@@]3(C)C[C@@H]23)c2cnc(-c3cnc(C)nc3)cc12 [Compound 23, (1R,3S,5R)-2-(2-(3-Acetyl-5-(2-methylpyrimidin-5-yl)-1H-pyrazolo[3,4-C]pyridine-1-yl)acetly)-N-(2-fluoro-3-(trifluoromethyl)phenyl)-5-methyl-2-azabicyclo[3.1.0]hexane-3-carboxamide]"
2,< 1000 nM,CC(=O)c1nn(CC(=O)N2[C@H](C(=O)Nc3nc(Br)ccc3C)C[C@@]3(C)C[C@@H]23)c2c3c(c(-c4cnc(C)nc4)cc12)CCCO3 [Compound 20]
3,< 1000 nM,"CC(=O)c1nn(CC(=O)N2[C@H](C(=O)N[C@H](C)CC(C)C)C[C@@]3(C)C[C@@H]23)c2ccc(-c3cnc(C)nc3)cc12 [Compound 18, (1R,3S,5R)-2-(2-(3-Acetyl-5-(2-methylpyrimidin-5-yl)-1H-indazol-1-yl)acetyl)-5-methyl-N—((R)-4-methylpentan-2-yl)-2-azabicyclo[3.1.0]hexane-3-carboxamide]"
4,< 1000 nM,"CC(=O)c1nn(CC(=O)N2[C@H](C(=O)N[C@H](C)C(C)C)C[C@@]3(C)C[C@@H]23)c2ccc(-c3cnc(C)nc3)cc12 [Compound 14, (1R,3S,5R)-2-(2-(3-Acetyl-5-(2-methylpyrimidin-5-yl)-1H-indazol-1-yl)acetyl)-5-methyl-N—((R)-3-methylbutan-2-yl)-2-azabicyclo[3.1.0]hexane-3-carboxamide]"
5,< 1000 nM,"CC(=O)c1nn(CC(=O)N2[C@H](C(=O)NCCc3cccnc3)C[C@@]3(C)C[C@@H]23)c2c(C)cc(-c3cnc(C)nc3)cc12 [Compound 7, (1R,3S,5R)-2-(2-(3-Acetyl-7-methyl-5-(2-methylpyrimidin-5-yl)-1H-indazol-1-yl)acetyl)-5-methyl-N-(2-(pyridin-3-yl)ethyl)-2-azabicyclo[3.1.0]hexane-3-carboxamide]"

# Same assay, conditions: Human Factor D 80 nM, substrate Z-L-Lys-SBzl; Table 2; read-out: IC50 (Stars)
row,IC50,SMILES
1,< 1000 nM,"CC(=O)c1nn(CC(=O)N2C[C@H]3C[C@H]3[C@H]2C(=O)Nc2nc(Br)ccc2C)c2c(C)cc(-c3cnc(C(C)O)nc3)cc12 (stereo partly drawn) [Compound 164, (1R,2S,5S)-3-(2-(3-acetyl-5-(2-(1-hydroxyethyl)pyrimidin-5-yl)-7-methyl-1H-indazol-1-yl)acetyl)-N-(6-bromo-3-methylpyridin-2-yl)-3-azabicyclo[3.1.0]hexane-2-carboxamide]"
2,< 1000 nM,"COC(=O)c1ncc(-c2cc(C)c3c(c2)c(C(C)=O)nn3CC(=O)N2[C@H](C(=O)Nc3nc(Br)c(F)cc3C)C[C@@]3(C)C[C@@H]23)cn1 [Compound 44, Methyl 5-(3-acetyl-1-(2-((1R,3S,5R)-3-((6-bromo-5-fluoro-3-methylpyridin-2-yl)carbamoyl)-5-methyl-2-azabicyclo[3.1.0]hexan-2-yl)-2-oxoethyl)-7-methyl-1H-indazol-5-yl)pyrimidine-2-carboxylate]"
3,< 1000 nM,"CC(=O)c1cn(CC(=O)N2[C@H]3CC[C@H](C3)[C@H]2C(=O)Nc2nc(C(F)(F)F)ccc2C)c2c(C)cc(-c3cnc(C)nc3)cc12 [Compound 177, (1S,3S,4R)-2-(2-(3-acetyl-7-methyl-5-(2-methylpyrimidin-5-yl)-1H-indol-1-yl)acetyl)-N-(3-methyl-6-(trifluoromethyl)pyridin-2-yl)-2-azabicyclo[2.2.1]heptane-3-carboxamide]"
4,< 1000 nM,"CC(=O)c1nn(CC(=O)N2[C@H](C(=O)Nc3nc(Br)ccc3C)C[C@@]3(C)C[C@@H]23)c2c(C)cc(-c3cnc(C#N)nc3)cc12 [Compound 57, (1R,3S,5R)-2-(2-(3-acetyl-5-(2-cyanopyrimidin-5-yl)-7-methyl-1H-indazol-1-yl)acetyl)-N-(6-bromo-3-methylpyridin-2-yl)-5-methyl-2-azabicyclo[3.1.0]hexane-3-carboxamide]"
5,< 1000 nM,"CC(=O)c1nn(CC(=O)N2[C@H](C(=O)Nc3nc(Br)ccc3C)C[C@@]3(C)C[C@@H]23)c2c(C)cc(-c3cnc(C(C)O)nc3)cc12 (stereo partly drawn) [Compound 95, (1R,3S,5R)-2-(2-(3-acetyl-5-(2-(1-hydroxyethyl)pyrimidin-5-yl)-7-methyl-1H-indazol-1-yl)acetyl)-N-(6-bromo-3-methylpyridin-2-yl)-5-methyl-2-azabicyclo[3.1.0]hexane-3-carboxamide]"
6,< 1000 nM,"COc1cc(Br)nc(NC(=O)[C@@H]2[C@@H]3C[C@@H]3CN2C(=O)Cn2nc(C(C)=O)c3cc(-c4cnc(CO)nc4)cc(C)c32)c1 [Compound 73, (1R,2S,5S)-3-(2-(3-acetyl-5-(2-(hydroxymethyl)pyrimidin-5-yl)-7-methyl-11H-indazol-1-yl)acetyl)-N-(6-bromo-4-methoxypyridin-2-yl)-3-azabicyclo[3.1.0]hexane-2-carboxamide]"
7,< 1000 nM,"CC(=O)c1cn(CC(=O)N2[C@H](C(=O)Nc3nc(C(F)(F)F)ccc3C)C[C@@]3(C)C[C@@H]23)c2c(C)nc(-c3cnc(C)nc3)cc12 [Compound 200, (1R,3S,5R)-2-{2-[3-acetyl-7-methyl-5-(2-methylpyrimidin-5-yl)pyrrolo[2,3-c]pyridin-1-yl]acetyl}-5-methyl-N-[3-methyl-6-(trifluoromethyl)pyridin-2-yl]-2-azabicyclo[3.1.0]hexane-3-carboxamide]"
8,< 1000 nM,"CC(=O)c1nn(CC(=O)N2[C@H](C(=O)Nc3nc(Br)ccc3C3CC3)C[C@@]3(C)C[C@@H]23)c2ccc(-c3cnc(CO)nc3)cc12 [Compound 81, (1R,3S,5R)-2-(2-(3-acetyl-5-(2-(hydroxymethyl)pyrimidin-5-yl)-1H-indazol-1-yl)acetyl)-N-(6-bromo-3-cyclopropylpyridin-2-yl)-5-methyl-2-azabicyclo[3.1.0]hexane-3-carboxamide]"
9,< 1000 nM,"COCCOC[C@@]12C[C@@H](C(=O)Nc3nc(Br)ccc3C)N(C(=O)Cn3nc(C(C)=O)c4cc(-c5cnc(C)nc5)cc(C)c43)[C@@H]1C2 [Compound 107, (1R,3S,5S)-2-(2-(3-acetyl-7-methyl-5-(2-methylpyrimidin-5-yl)-1H-indazol-1-yl)acetyl)-N-(6-bromo-3-methylpyridin-2-yl)-5-((2-methoxyethoxy)methyl)-2-azabicyclo[3.1.0]hexane-3-carboxamide]"
10,< 1000 nM,"Cc1ncc(-c2cc(C)c3c(c2)c(C(C)O)cn3CC(=O)N2[C@H](C(=O)Nc3nc(Br)ccc3C)C[C@@]3(C)C[C@@H]23)cn1 (stereo partly drawn) [Compound 191, (1R,3S,5R)—N-(6-bromo-3-methylpyridin-2-yl)-2-(2-(3-(1-hydroxyethyl)-7-methyl-5-(2-methylpyrimidin-5-yl)-1H-indol-1-yl)acetyl)-5-methyl-2-azabicyclo[3.1.0]hexane-3-carboxamide]"
11,< 1000 nM,"CC(=O)c1nn(CC(=O)N2[C@H](C(=O)Nc3nc(Br)ccc3C)C[C@@]3(C)C[C@@H]23)c2c(C)cc(-c3cnc(CF)nc3)cc12 [Compound 208, (1R,3S,5R)-2-(2-(3-acetyl-5-(2-(fluoromethyl)pyrimidin-5-yl)-7-methyl-1H-indazol-1-yl)acetyl)-N-(6-bromo-3-methylpyridin-2-yl)-5-methyl-2-azabicyclo[3.1.0]hexane-3-carboxamide]"
12,< 1000 nM,"CC(=O)c1nn(CC(=O)N2C[C@H]3C[C@H]3[C@H]2C(=O)Nc2nc(Br)ccc2C)c2ccc(-c3cncc(S(N)(=O)=O)c3)cc12 [Compound 69, (1R,2S,5S)-3-(2-(3-Acetyl-5-(5-sulfamoylpyridin-3-yl)-1H-indazol-1-yl)acetyl)-N-(6-bromo-3-methylpyridin-2-yl)-3-azabicyclo[3.1.0]hexane-2-carboxamide]"
13,< 1000 nM,"CC(=O)c1nn(CC(=O)N2[C@H](C(=O)Nc3nc(Br)ccc3C)C[C@@]3(C)C[C@@H]23)c2c(C)cc(-c3ccnc(CO)c3)cc12 [Compound 132, (1R,3S,5R)-2-(2-(3-acetyl-5-(2-(hydroxymethyl)pyridin-4-yl)-7-methyl-1H-indazol-1-yl)acetyl)-N-(6-bromo-3-methylpyridin-2-yl)-5-methyl-2-azabicyclo[3.1.0]hexane-3-carboxamide]"
14,< 1000 nM,"CC(=O)c1cn(CC(=O)N2[C@H](C(=O)Nc3nc(C(F)(F)F)ccc3C)C[C@@]3(C)C[C@@H]23)c2c(CO)nc(-c3cnc(C)nc3)cc12 [Compound 207, (1R,3S,5R)-2-(2-(3-acetyl-7-(hydroxymethyl)-5-(2-methylpyrimidin-5-yl)-1H-pyrrolo[2,3-c]pyridin-1-yl)acetyl)-5-methyl-N-(3-methyl-6-(trifluoromethyl)pyridin-2-yl)-2-azabicyclo[3.1.0]hexane-3-carboxamide]"
15,< 1000 nM,"CC(=O)c1nn(CC(=O)N2[C@H](C(=O)NC(C)Cc3ccsc3)C[C@@]3(C)C[C@@H]23)c2c(C)cc(-c3cnc(C)nc3)cc12 (stereo partly drawn) [Compound 183, (1R,3S,5R)-2-{2-[3-acetyl-7-methyl-5-(2-methylpyrimidin-5-yl)indazol-1-yl]acetyl}-5-methyl-N-[1-(thiophen-3-yl)propan-2-yl]-2-azabicyclo[3.1.0]hexane-3-carboxamide]"
16,< 1000 nM,"Cc1ncc(-c2cc3c(C(N)=O)nn(CC(=O)N4[C@H](C(=O)Nc5cc(F)cc(Br)n5)C[C@@]5(C)C[C@@H]45)c3c(C)n2)cn1 [Compound 140, 1-(2-((1R,3S,5R)-3-((6-bromo-4-fluoropyridin-2-yl)carbamoyl)-5-methyl-2-azabicyclo[3.1.0]hexan-2-yl)-2-oxoethyl)-7-methyl-5-(2-methylpyrimidin-5-yl)-1H-pyrazolo[3,4-c]pyridine-3-carboxamide]"
17,< 1000 nM,"COCc1ccc(Br)nc1NC(=O)[C@@H]1C[C@@]2(C)C[C@H]2N1C(=O)Cn1cc(C(C)=O)c2cc(-c3cnc(C)nc3)cc(C)c21 [Compound 214, (1R,3S,5R)-2-(2-(3-acetyl-7-methyl-5-(2-methyl-pyrimidin-5-yl)-1H-indol-1-yl)acetyl)-N-(6-bromo-3-(methoxymethyl)pyridin-2-yl)-5-methyl-2-azabicyclo[3.1.0]hexane-3-carboxamide]"
